Measurements from publication PMC5790467, “Enhanced anti-tumor efficacy and mechanisms associated with docetaxel-piperine combination- in vitro and in vivo investigation using a taxane-resistant prostate cancer model” (Oncotarget, 2017).
≈ marks a conversion by molar mass, not a printed value. Where two headings read alike, the source gives them in different places.

Key:
MCF-7/DOX = tested on: MCF-7/DOX; parameters: method as in PMID 21802927; conditions: PIP at 50 μM; cited from earlier work
Caco-2 monolayer model = tested on: Caco-2 monolayer model; parameters: method as in PMID 12130727; conditions: cited from earlier work
PC3-TxR cells = assay: Cell viability (cytotoxicity) of PC3-TxR cells; format: cell-based; conditions: Homo sapiens, triplicate samples, read-out: IC50, cytotoxicity of PIP on PC3-TxR
Description: www.impactjournals.com/oncotarget/ Oncotarget, Supplementary Materials 2017
investigation using a taxane-resistant prostate cancer model
Supplementary Figure 1: Cell viability (measured from triplicate samples) of PC3-TxR cells. (A) The cytotoxicity of PIP
(1 picture or pasted object on this page, not shown here)

[1] = tested on: CYPs (hepatic metabolism of DTX); assay: In vitro inhibition of hepatic metabolism of DTX in mouse liver microsomes; format: in vitro ADME, ICR mice; conditions: ICR, pH 7.4, probe DTX (docetaxel) 2 μM
Description: Livers of ICR-NOD/SCID mice administrated with vehicle control or PIP were collected for the ex vivo metabolism study. In vitro metabolic reactions were performed in blank ICR mice liver. Hepatic microsomes were prepared according to the method of Hill. The system of enzymatic incubation was conducted based on the condition reported by Mooiman et al. with minor modification. […] Drug mixture was pre-incubated with mice liver microsome at 0.5 mg/ml in 50 mM phosphate buffer (pH7.4) containing 2.6 mM of NADP^+, 7.1 mM of glucose-6-phosphate and 6.5 mM of magnesium chloride for 15 min. The reaction was initiated by the addition of glucose-6-phosphate dehydrogenase at 0.8 U/ml. After incubation for 60 min, the reaction was terminated by the addition of 200 µl of ice-cold acetonitrile/methanol (50:50, v/v) containing glibenclamide at 100 ng/ml. The mixture was centrifuged at 13000 rpm for 10 min and the supernatant was injected into LC/MS/MS for analysis.

[2] = i.g.; female Fischer rats; cited from earlier work
A-549/DDP = tested on: A-549/DDP; parameters: method as in PMID 21802927; conditions: PIP at 50 μM; cited from earlier work

## O=C(/C=C/C=C/c1ccc2c(c1)OCO2)N1CCCCC1 [PIP, 1-piperoyl piperidine]
MCF-7/DOX
  enhancement of the sensitivity to doxorubicin: 32 folds
Caco-2 monolayer model; read-out: IC50 of inhibition of the transport of cyclosporine A
  IC50: 74.1 µM
Caco-2 monolayer model; read-out: IC50 of inhibition of the transport of digoxin
  IC50: 15.5 µM
PC3-TxR cells
  IC50: 47.3 µg/mL (≈ 166 µM)
[1]
  IC50 at 60 min: 37.3 µM
[2]
  LD50: 514 mg/kg
A-549/DDP
  enhancement of the sensitivity to doxorubicin: 14 folds
